This note sets out measurements from patent US11820766B2, “Monoacylglycerol lipase modulators” (Janssen Pharmaceutica NV, priority 2018, dated 2023).

One may read the IC50 as the point on the concentration scale where inhibition reaches its midpoint. A lower IC50 goes with greater potency in that assay.

The target of the first test is T1, human MGL from HeLa cells (Homo sapiens, UniProt Q99685).
T1 construct: combining endogenously expressed MGL from HeLa cells with test compounds; endogenous in cells; host or cells: HeLa cells / cell homogenates
T1 sequence (Q99685 1-303): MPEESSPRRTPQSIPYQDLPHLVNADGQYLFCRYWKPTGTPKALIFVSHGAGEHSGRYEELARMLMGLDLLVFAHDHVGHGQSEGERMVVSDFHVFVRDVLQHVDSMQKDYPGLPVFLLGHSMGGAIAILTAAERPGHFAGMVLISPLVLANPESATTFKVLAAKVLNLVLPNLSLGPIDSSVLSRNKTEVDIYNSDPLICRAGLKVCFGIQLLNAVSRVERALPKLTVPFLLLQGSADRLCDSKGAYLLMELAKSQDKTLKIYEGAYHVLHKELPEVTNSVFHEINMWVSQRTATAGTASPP
Put plainly: In vitro MGL activity assay: [glycerol-1,3-3H]-oleyl glycerol cleavage by MGL from HeLa cells. It is filed as biochemical. The settings on record: 300 nM [Glycerol-1,3-3H]-oleyl glycerol, one hour. An excerpt:
MGL is the predominant hydrolase in HeLa cells/cell homogenates.
For the compound `C[C@H]1c2nn(C)c(-c3cc(F)c(F)c(F)c3)c2CCN1C(=O)c1cnn2c1CCCC2` [Example 552, [(7S)-2,7-Dimethyl-3-(3,4,5-trifluorophenyl)-5,7-dihydro-4H-pyrazolo[3,4-c]pyridin-6-yl]-(4,5,6,7-tetrahydropyrazolo[1,5-a]pyridin-3-yl)methanone], the IC50 was 40.4 nM. Still for that read-out and setting: for `C[C@H]1c2nn(C)c(-c3cc(F)c(F)c(F)c3)c2CCN1C(=O)c1cccc2c1OCCC2` [Example 583, Chroman-8-yl-[(7S)-2,7-dimethyl-3-(3,4,5-trifluorophenyl)-5,7-dihydro-4H-pyrazolo[3,4-c]pyridin-6-yl]methanone] the value was 1.42 nM.

The same test, now with this note: 300 nM [Glycerol-1,3-3H]-oleyl glycerol, one hour incubation.
As to `CC(C)Oc1cncc(C(=O)N2CCc3c(nn(C)c3-c3cc(F)c(F)c(F)c3)[C@@H]2C)c1` [Example 305, [(7S)-2,7-Dimethyl-3-(3,4,5-trifluorophenyl)-5,7-dihydro-4H-pyrazolo[3,4-c]pyridin-6-yl]-(5-isopropoxy-3-pyridyl)methanone], the IC50 worked out at 229 nM.

`CC1c2nn(C(F)F)c(-c3cc(F)cc(F)c3)c2CCN1C(=O)c1ccc2ncccc2c1` (stereo not drawn) [Example 155, (2-(Difluoromethyl)-3-(3,5-difluorophenyl)-7-methyl-2,4,5,7-tetrahydro-6H-pyrazolo[3,4-c]pyridin-6-yl)(quinolin-6-yl)methanone] returned an IC50 of 4.63 nM.

As for `COc1cc(C(=O)N2CCc3c(nn(C)c3-c3cc(F)c(F)c(F)c3)[C@@H]2C)cc(-n2cnnc2)c1` [Example 298, [(7S)-2,7-Dimethyl-3-(3,4,5-trifluorophenyl)-5,7-dihydro-4H-pyrazolo[3,4-c]pyridin-6-yl]-[3-methoxy-5-(1,2,4-triazol-4-yl)phenyl]methanone], 18.7 nM corresponded to half-maximal inhibition (IC50). On the same count and under the same terms, for `C[C@H]1c2nn(C)c(-c3cc(F)c(F)c(F)c3)c2CCN1C(=O)c1ccc(F)cc1-n1nccn1` [Example 196, (S)-(2,7-Dimethyl-3-(3,4,5-trifluorophenyl)-2,4,5,7-tetrahydro-6H-pyrazolo[3,4-c]pyridin-6-yl)(4-fluoro-2-(2H-1,2,3-triazol-2-yl)phenyl)methanone] the value was 307 nM; for `COc1cc(F)cc(-c2c3c(nn2C)[C@H](C)N(C(=O)c2ccc4nccnc4c2)CC3)c1` [Example 186, (S)-(3-(3-Fluoro-5-methoxyphenyl)-2,7-dimethyl-2,4,5,7-tetrahydro-6H-pyrazolo[3,4-c]pyridin-6-yl)(quinoxalin-6-yl)methanone], 46 nM. `Cn1nc2c(c1-c1ccccc1)CCN(C(=O)c1cccc3nccnc13)C2` [Example 97, (2-Methyl-3-phenyl-2,4,5,7-tetrahydro-6H-pyrazolo[3,4-c]pyridin-6-yl)(quinoxalin-5-yl)methanone] came in with an IC50 of 4260 nM. Regarding `COc1cnc(C)c(C(=O)N2CCc3c(nn(C)c3-c3cc(F)c(F)c(F)c3)[C@@H]2C)c1` [Example 308, [(7S)-2,7-Dimethyl-3-(3,4,5-trifluorophenyl)-5,7-dihydro-4H-pyrazolo[3,4-c]pyridin-6-yl]-(5-methoxy-2-methyl-3-pyridyl)methanone], the IC50 came out at 115 nM. The compound `CC1c2nn(C)c(-c3cc(F)cc(F)c3)c2CCN1C(=O)c1cc2ccccc2cn1` (stereo not drawn) [Example 160, (3-(3,5-Difluorophenyl)-2,7-dimethyl-2,4,5,7-tetrahydro-6H-pyrazolo[3,4-c]pyridin-6-yl)(isoquinolin-3-yl)methanone] gave an IC50 of 260 nM. On the same count and under the same terms, the result for `C[C@H]1c2nn(C)c(-c3cc(F)c(F)c(F)c3)c2CCN1C(=O)c1cnn2ccncc12` [Example 229, (S)-(2,7-Dimethyl-3-(3,4,5-trifluorophenyl)-2,4,5,7-tetrahydro-6H-pyrazolo[3,4-c]pyridin-6-yl)(pyrazolo[1,5-a]pyrazin-3-yl)methanone] reads 40.7 nM; that for `Cn1nc2c(c1-c1ccccc1)CCN(C(=O)c1ccc3cc[nH]c3c1)C2` [Example 46, (1H-Indol-6-yl)(2-methyl-3-phenyl-2,4,5,7-tetrahydro-6H-pyrazolo[3,4-c]pyridin-6-yl)methanone], 359 nM.
